One experiment addresses T1, TGR5 (STC1 cell line) (Mus musculus, UniProt Q80SS6).
T1 sequence (Q80SS6 1-329): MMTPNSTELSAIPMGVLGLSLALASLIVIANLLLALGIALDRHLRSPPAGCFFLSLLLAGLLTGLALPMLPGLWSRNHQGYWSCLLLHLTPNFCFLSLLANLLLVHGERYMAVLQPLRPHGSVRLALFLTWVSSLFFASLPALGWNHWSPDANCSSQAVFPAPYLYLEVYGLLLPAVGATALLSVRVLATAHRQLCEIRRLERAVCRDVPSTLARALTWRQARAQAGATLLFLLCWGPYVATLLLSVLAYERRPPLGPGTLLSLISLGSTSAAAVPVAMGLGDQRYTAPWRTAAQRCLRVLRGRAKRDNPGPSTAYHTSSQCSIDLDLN
The experiment in a line: STC1 cAMP Agonist EC50 Determination.

In experiment [1] the target is T2, TGR5 (NCI-H716 cell line) (Homo sapiens, UniProt Q8TDU6).
T2 sequence (Q8TDU6 1-330): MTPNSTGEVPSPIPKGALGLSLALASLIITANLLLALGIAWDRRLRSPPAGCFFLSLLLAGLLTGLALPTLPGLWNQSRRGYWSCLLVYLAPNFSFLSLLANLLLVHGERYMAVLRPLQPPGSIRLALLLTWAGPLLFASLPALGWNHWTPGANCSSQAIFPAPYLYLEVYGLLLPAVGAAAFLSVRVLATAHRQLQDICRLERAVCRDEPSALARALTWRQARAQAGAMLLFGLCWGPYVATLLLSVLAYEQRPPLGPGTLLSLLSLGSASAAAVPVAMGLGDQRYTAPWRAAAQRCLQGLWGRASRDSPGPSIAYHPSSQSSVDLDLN
The experiment in a line: NCI-H716 cAMP Agonist EC50 Determination.

Structures can show the parent of a compound that is named as a salt.

Protocol for TGR5 (STC1 cell line): Cell stocks were maintained and grown in a sub-confluent state using standard cell culture procedures. The day before the experiment, the cells were harvested with non-enzymatic cell dissociation buffer and resuspended in complete growth media at 4E5 c/ml. […] The seeded plates were incubated overnight at 37° C.
On the day of the experiment, Assay Buffer containing: HBSS with Ca^2+and Mg^2+; 5 μM HEPES; 0.1% BSA; and, 0.5 μM IBMX was prepared. The growth medium was washed from the cell plates and replaced with 20 μL of Assay Buffer. […] The reaction was stopped by the addition of 20 μL 0.1% Formic Acid to all wells. Sixty minutes later 30 μL 3 M deuterated AMP was added to all wells (as a control for volume addition to the mass spec). Plates were mixed on a plate shaker for 1 min and centrifugated (5 min 3000 RPMs no brakes).
Plates were run on a 4000 QTrap triple-quadrapole Mass spectrometer in positive ion mode coupled with a Biocius RapidFire 300is. […] Two ions (cAMP and deuterated AMP were measured using Multiple Reaction Monitoring (MRM) in positive ion mode and the area under the curve (AUC) was determined for each of the ions.
The data from the Mass Spec/Rapid Plate AUC for cAMP and deuterated AMP were imported to an Excel worksheet. A Normalized signal (NS) was generated for each well=(cAMP AUC for the well/deut AMP AUC for the well)*average deut AMP AUC for the plate). nM cAMP was calculated for each well from the cAMP standard curves located on each plate by first calculating the slope and deriving the intercept (b).
EC50 values were determined from a 4-point fit (Hill equation) of a single 11-point compound dosing.

What is called EC50 is the concentration needed to bring the measured effect to its halfway point. Higher therefore signals a need for much substance. As for `COc1cc(C2CCCc3nc(SCc4c(F)cc(CCCN/C(N)=N/C#N)cc4F)n(-c4ccc(F)cc4)c32)ccc1Cl` (stereo not shown) [Example 43, (E)-1-(3-(4-((7-(4-chloro-3-methoxyphenyl)-1-(4-fluorophenyl)-4,5,6,7-tetrahydro-1H-benzo[d]imidazol-2-ylthio)methyl)-3,5-difluorophenyl)propyl)-2-cyanoguanidine hydrochloride], the EC50 on TGR5 (STC1 cell line) is 670 nM; in experiment [1], over 50000 nM.

Consider `COc1cc(C2(C)CCCc3nc(SCc4c(F)ccc(OCCN(C)C)c4F)n(-c4ccc(F)cc4)c32)ccc1Cl` (stereo not shown) [Example 96, 2-(3-((7-(4-chloro-3-methoxyphenyl)-1-(4-fluorophenyl)-7-methyl-4,5,6,7-tetrahydro-1H-benzo[d]imidazol-2-ylthio)methyl)-2,4-difluorophenoxy)-N,N-dimethylethanamine trifluoroacetic acid], for which the values for the 50% effective concentration (EC50) (at TGR5 (STC1 cell line); in experiment [1]) were 13400 nM and over 50000 nM, respectively.

In the case of `COc1cc(C2CCCc3nc(SCc4c(F)cc(CCCNC(=N)N)cc4F)n(-c4ccc(F)cc4)c32)ccc1Cl` (stereo not shown) [Example 42, 1-(3-(4-((7-(4-chloro-3-methoxyphenyl)-1-(4-fluorophenyl)-4,5,6,7-tetrahydro-1H-benzo[d]imidazol-2-ylthio)methyl)-3,5-difluorophenyl)propyl)guanidine trifluoroacetic acid], the EC50 is 530 nM on TGR5 (STC1 cell line) and over 50000 nM in experiment [1].

On to `COc1cc(C2CCCc3nc(SCc4c(Br)cncc4Br)n(-c4ccc(F)cc4)c32)ccc1Cl` (stereo not shown) [Example 60, 2-((3,5-dibromopyridin-4-yl)methylthio)-7-(4-chloro-3-methoxyphenyl)-1-(4-fluorophenyl)-4,5,6,7-tetrahydro-1H-benzo[d]imidazole], for which the EC50 at TGR5 (STC1 cell line) was 15500 nM; in experiment [1] it was over 50000 nM.

Turning to `CCO/C=C/c1cc(F)c(CSc2nc3c(n2-c2ccc(F)cc2)C(C)(c2ccc(OC)c(OC)c2)CCC3)c(F)c1` (stereo not shown) [Example 110, (E)-7-(3,4-dimethoxyphenyl)-2-((4-(2-ethoxyvinyl)-2,6-difluorobenzyl)thio)-1-(4-fluorophenyl)-7-methyl-4,5,6,7-tetrahydro-1H-benzo[d]imidazole], the EC50 on TGR5 (STC1 cell line) was 450 nM; in experiment [1], 1180 nM.

Consider `COc1cc(C2CCCc3nc(SCc4c(F)cc(CCCN(C)C)cc4F)n(-c4ccc(F)cc4)c32)ccc1Cl` (stereo not shown) [Example 39b, 3-(4-((7-(4-chloro-3-methoxyphenyl)-1-(4-fluorophenyl)-4,5,6,7-tetrahydro-1H-benzo[d]imidazol-2-ylthio)methyl)-3,5-difluorophenyl)-N,N-dimethylpropan-1-amine trifluoroacetic acid], for which the EC50 on TGR5 (STC1 cell line) is 16300 nM; in experiment [1], over 50000 nM.

For the compound `COc1ccc(C2(C)CCCc3nc(SCc4c(F)cc(C(N)=O)cc4F)n(-c4ccc(F)cc4)c32)cc1OC` (stereo not shown) [Example 104, 4-(((7-(3,4-dimethoxyphenyl)-1-(4-fluorophenyl)-7-methyl-4,5,6,7-tetrahydro-1H-benzo[d]imidazol-2-yl)thio)methyl)-3,5-difluorobenzamide], the values for the EC50 (at TGR5 (STC1 cell line); in experiment [1]) were 170 nM and 900 nM, respectively.

Turning to `COc1cc(C2(C)CCCc3nc(SCc4c(F)cc(C(=O)O)cc4F)n(-c4ccc(F)cc4)c32)ccc1F` (stereo not shown) [Example 120, 3,5-difluoro-4-(((7-(4-fluoro-3-methoxyphenyl)-1-(4-fluorophenyl)-7-methyl-4,5,6,7-tetrahydro-1H-benzo[d]imidazol-2-yl)thio)methyl)benzoic acid], the figures for the EC50 (at TGR5 (STC1 cell line); in experiment [1]) were 1180 nM and over 50000 nM, respectively.

Turning to `COc1cc(C2CCCc3nc(SCc4c(F)cc(OCc5nnn[nH]5)cc4F)n(-c4ccc(F)cc4)c32)ccc1Cl` (stereo not shown) [Example 30, 7-(4-chloro-3-methoxyphenyl)-2-([[2,6-difluoro-4-(1H-1,2,3,4-tetrazol-5-ylmethoxy)phenyl]methyl]sulfanyl)-1-(4-fluorophenyl)-4,5,6,7-tetrahydro-1H-1,3-benzodiazole], the EC50 is 960 nM at TGR5 (STC1 cell line) and over 50000 nM in experiment [1].

Take `COCCOCCOCCOCCNC(=O)c1cc(F)c(CSc2nc3c(n2-c2ccc(F)cc2)C(c2ccc(F)c(OC)c2)CCC3)c(F)c1` (stereo not shown) [Example 75, 3,5-difluoro-4-(((7-(4-fluoro-3-methoxyphenyl)-1-(4-fluorophenyl)-4,5,6,7-tetrahydro-1H-benzo[d]imidazol-2-yl)thio)methyl)-N-(2,5,8,11-tetraoxatridecan-13-yl)benzamide]: the figures for the EC50 (on TGR5 (STC1 cell line); in experiment [1]) were 2760 nM and over 50000 nM, respectively.

Consider `COc1cc(C2CCCc3nc(SCc4c(F)cc(CCC(N)=O)cc4F)n(-c4ccc(F)cc4)c32)ccc1Cl` (stereo not shown) [Example 45, 3-(4-((7-(4-chloro-3-methoxyphenyl)-1-(4-fluorophenyl)-4,5,6,7-tetrahydro-1H-benzo[d]imidazol-2-ylthio)methyl)-3,5-difluorophenyl)propanamide trifluoroacetic acid], for which the figures for the EC50 (at TGR5 (STC1 cell line); in experiment [1]) were 350 nM and over 50000 nM, respectively.

For `COc1cc(C2CCCc3nc(SCc4c(F)cc(C(=O)O)cc4F)n(-c4ccc(F)cc4)c32)ccc1F` (stereo not shown) [Example 74, 3,5-difluoro-4-(((7-(4-fluoro-3-methoxyphenyl)-1-(4-fluorophenyl)-4,5,6,7-tetrahydro-1H-benzo[d]imidazol-2-yl)thio)methyl)benzoic acid], the EC50 on TGR5 (STC1 cell line) is 1100 nM; in experiment [1], over 50000 nM.

Turning to `COc1ccc(C2(C)CCCc3nc(SCc4nccs4)n(-c4ccc(F)cc4)c32)cc1OC` (stereo not shown) [Example 117, 2-(((7-(3,4-dimethoxyphenyl)-1-(4-fluorophenyl)-7-methyl-4,5,6,7-tetrahydro-1H-benzo[d]imidazol-2-yl)thio)methyl)thiazole], the EC50 at TGR5 (STC1 cell line) was found to be 410 nM; in experiment [1], 2650 nM.

Regarding `COc1cc(C2CCCc3nc(SCc4c(F)cc(C#N)cc4F)n(-c4ccc(F)cc4)c32)ccc1Cl` (stereo not shown) [Example 36, 4-([[7-(4-chloro-3-methoxyphenyl)-1-(4-fluorophenyl)-4,5,6,7-tetrahydro-1H-1,3-benzodiazol-2-yl]sulfanyl]methyl)-3,5-difluorobenzonitrile], the values for the EC50 (on TGR5 (STC1 cell line); in experiment [1]) were 1340 nM and over 50000 nM, respectively.

With `C/N=C(\N)N/N=C/CCc1cc(F)c(CSc2nc3c(n2-c2ccc(F)cc2)C(c2ccc(Cl)c(OC)c2)CCC3)c(F)c1` (stereo not shown) [Example 48, (1E,2E)-2-(3-(4-((7-(4-chloro-3-methoxyphenyl)-1-(4-fluorophenyl)-4,5,6,7-tetrahydro-1H-benzo[d]imidazol-2-ylthio)methyl)-3,5-difluorophenyl)propylidene)-N′-methylhydrazinecarboximidamide hydrochloride], the EC50 was 350 nM at TGR5 (STC1 cell line) and over 50000 nM in experiment [1].

With `COc1cc(C2(C)CCCc3nc(SCc4c(F)cc(C#N)cc4F)n(-c4ccc(F)cc4)c32)ccc1Cl` (stereo not shown) [Example 89, 4-((7-(4-chloro-3-methoxyphenyl)-1-(4-fluorophenyl)-7-methyl-4,5,6,7-tetrahydro-1H-benzo[d]imidazol-2-ylthio)methyl)-3,5-difluorobenzonitrile trifluoroacetic acid], the EC50 is 2080 nM on TGR5 (STC1 cell line) and over 50000 nM in experiment [1].

Turning to `COc1cc(C2OCCc3nc(SCc4c(F)cc(OCCOCCOCCCl)cc4F)n(-c4ccc(F)cc4)c32)ccc1Cl` (stereo not shown) [Example 133, 4-(4-chloro-3-methoxyphenyl)-2-((4-(2-(2-(2-chloroethoxy)ethoxy)ethoxy)-2,6-difluorobenzyl)thio)-3-(4-fluorophenyl)-3,4,6,7-tetrahydropyrano[3,4-d]imidazole], the EC50 on TGR5 (STC1 cell line) was 6070 nM; in experiment [1], over 50000 nM.
